Assays:
[1] = Solubility of polymorphs of compound 1; format: physicochemical; settings: compared to the other polymorphs
[2] = Bioavailability of polymorphs of compound 1; format: in vivo; settings: compared to the other polymorphs
[3] = system: interstitial cystitis (IC); assay: Example 8: patient with interstitial cystitis symptoms; format: in vivo, human; settings: 1000 mg tablet orally twice daily for at least 2 months; present-tense example
Procedure: A person complains of suffering symptoms associated with interstitial cystitis (IC), including gastrointestinal symptoms of diarrhea, bloating and pain. In an effort to alleviate these symptoms, a tablet containing 1000 mg of compound (1) (Form A) is administered orally to this patient twice daily for at least 2 months. […] Similar positive results are observed for other patients complaining of the same or similar symptoms attributable to IC.

- solubility [1]: superior
- bioavailability [2]: superior
SMILES: CCCc1c(SCCCOc2ccc(C(C)=O)c(OCCCC(=O)O)c2CCC)ccc(C(C)=O)c1O [Form A, 4-[6-acetyl-3-[3-(4-acetyl-3-hydroxy-2-propylphenylthio)propoxy]-2-propylphenoxy]butyric acid]
- symptoms of interstitial cystitis reported by patient [3]: positive effects

— patent US8026282B2, “Phenoxyalkylcarboxylic acid derivatives in the treatment of irritable bowel syndrome” (Medicinova, Inc., priority 2004, dated 2011)
